In patent publication US20240199584A1, “KRAS INHIBITORS” (Bristol-Myers Squibb Company, priority 2022, published 2024):
Where two headings read alike, the source gives them in different places.

Columns and labels:
KRAS G12D [1] = target: T1, KRAS G12D (Homo sapiens, UniProt P01116, G12D); assay: biochemical
Procedure: Recombinant GST-RAF1 RBD (Ras binding domain) (9 nM) was added, followed by the addition of SA-Tb (0.25 nM), and the reaction mixture was incubated for 3 hours. HTRF (Homogeneous Time-Resolved Fluorescence) signal was measured (PerkinElmer Envision), the signal ratio (λem 520/λem 495) was calculated, and IC50 values were calculated from the dose-response curve.

KRAS G12D [2] = target: T1, KRAS G12D; assay: biochemical; remark: listed apart in the source
Procedure: BIODIPY-labeled GDP (BIODIPY: dipyrrometheneboron difluoride) (400 nM) and recombinant SOS (son of sevenless protein) (10 nM) were added, and the reaction was incubated for 30 minutes. HTRF signal was measured (PerkinElmer Envision), the signal ratio (λem 520/λem 495) was calculated, and IC50 values were calculated from the dose-response curve.

KRAS G12V = target: T2, KRAS G12V (Homo sapiens, UniProt P01116, G12V); assay: Cellular KRAS:RAF Disruption Assay (NanoBRET), KRAS G12V; assay type: cell-based; details: HEK293 T cells co-expressing RAF1 and KRAS G12V, 24 hours; read-out: RAS::RAF binding via NanoBRET IC50, KRAS G12V
T2 construct: expressed in transfected cells
T2 sequence (P01116 1-188 isoform P01116-2 G12V): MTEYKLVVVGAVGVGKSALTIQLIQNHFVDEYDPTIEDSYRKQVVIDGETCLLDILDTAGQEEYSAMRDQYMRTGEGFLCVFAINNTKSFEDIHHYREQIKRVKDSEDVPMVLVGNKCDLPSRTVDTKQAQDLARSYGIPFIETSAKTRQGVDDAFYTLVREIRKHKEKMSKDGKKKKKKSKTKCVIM
Procedure: (§1) Cellular KRAS:RAF Disruption Assay
(§2) Stable cell lines (HEK293 T) were generated to co-express RAF1 and mutant or wild type KRAS, as indicated, using the BiBRET vector (Promega). Engineered cell lines were suspended in media (OptiMEM, […]), plated in 384-well plates (8000 cells/well), and allowed to rest for 1.5 hours. Cells were treated with compounds for 24 hours, and NanoBRET NanoGlo substrate (Promega) was added per the manufacturer's instructions.

KRAS WT = target: T3, KRAS WT (Homo sapiens, UniProt P01116); assay: Cellular KRAS:RAF Disruption Assay (NanoBRET), KRAS WT; assay type: cell-based; details: HEK293 T cells co-expressing RAF1 and wild type KRAS, 24 hours; read-out: RAS::RAF binding via NanoBRET IC50, KRAS WT
T3 construct: expressed in transfected cells
T3 sequence (P01116 1-188 isoform P01116-2): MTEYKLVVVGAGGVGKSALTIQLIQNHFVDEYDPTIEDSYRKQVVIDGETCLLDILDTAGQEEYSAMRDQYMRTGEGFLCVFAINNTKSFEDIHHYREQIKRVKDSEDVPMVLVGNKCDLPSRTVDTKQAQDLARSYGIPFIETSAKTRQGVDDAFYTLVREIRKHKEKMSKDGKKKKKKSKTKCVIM
Procedure: as §1, §2

KRAS G12A = target: T4, KRAS G12A (Homo sapiens, UniProt P01116, G12A); assay: Cellular KRAS:RAF Disruption Assay (NanoBRET), KRAS G12A; assay type: cell-based; details: HEK293 T cells co-expressing RAF1 and KRAS G12A, 24 hours; read-out: RAS::RAF binding via NanoBRET IC50, KRAS G12A
T4 construct: expressed in transfected cells
T4 sequence (P01116 1-188 isoform P01116-2 G12A): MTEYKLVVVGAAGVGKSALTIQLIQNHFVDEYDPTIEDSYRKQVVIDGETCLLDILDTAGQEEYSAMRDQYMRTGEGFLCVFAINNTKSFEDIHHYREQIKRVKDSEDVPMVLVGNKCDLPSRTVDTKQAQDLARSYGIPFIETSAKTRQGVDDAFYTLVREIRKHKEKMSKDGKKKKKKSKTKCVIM
Procedure: as §1, §2

KRAS G12C = target: T5, KRAS G12C (Homo sapiens, UniProt P01116, G12C); assay: Cellular KRAS:RAF Disruption Assay (NanoBRET), KRAS G12C; assay type: cell-based; details: HEK293 T cells co-expressing RAF1 and KRAS G12C, 24 hours; read-out: RAS::RAF binding via NanoBRET IC50, KRAS G12C
T5 construct: expressed in transfected cells
T5 sequence (P01116 1-188 isoform P01116-2 G12C): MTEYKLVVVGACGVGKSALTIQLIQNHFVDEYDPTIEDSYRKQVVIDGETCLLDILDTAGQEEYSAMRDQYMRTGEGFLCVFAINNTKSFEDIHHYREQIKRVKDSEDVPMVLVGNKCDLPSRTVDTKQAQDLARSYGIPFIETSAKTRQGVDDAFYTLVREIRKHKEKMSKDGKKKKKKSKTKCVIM
Procedure: as §1, §2

T1 sequence (P01116 1-188 isoform P01116-2 G12D): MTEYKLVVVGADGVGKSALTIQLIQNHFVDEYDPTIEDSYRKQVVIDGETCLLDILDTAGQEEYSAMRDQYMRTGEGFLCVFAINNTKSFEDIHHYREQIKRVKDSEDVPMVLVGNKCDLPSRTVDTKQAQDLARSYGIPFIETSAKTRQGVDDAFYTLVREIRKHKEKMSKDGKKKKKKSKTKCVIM

SMILES	IC50 (KRAS G12D [1])	IC50 (KRAS G12D [2])	further results
C#Cc1c(F)ccc2cc(O)cc(-c3ncc4c(N5CCCC(C#N)C5)nc(OC[C@@]56CCCN5C[C@H](F)C6)nc4c3F)c12 (single isomer, unassigned) [Example 1-23]	2 nM	–	–
C#Cc1c(F)ccc2cc(O)cc(-c3ncc4c(N5CCCC(C#N)C5)nc(OCC5(CN6CCC(F)CC6)CC5)nc4c3F)c12 (single isomer, unassigned) [Example 1-44, 1-[7-(8-ethynyl-7-fluoro-3-hydroxynaphthalen-1-yl)-8-fluoro-2-({1-[(4-fluoropiperidin-1-yl)methyl]cyclopropyl}methoxy)pyrido [4,3-d]pyrimidin-4-yl]piperidine-3-carbonitrile]	> 100000 nM	19100 nM	–
C#Cc1c(F)ccc2cc(O)cc(-c3ncc4c(N5CCCC(CO)C5)nc(OC[C@@]56CCCN5C[C@H](F)C6)nc4c3F)c12 (single isomer, unassigned) [Example 1-63]	≥ 100000 nM	12800 nM	–
C#Cc1c(F)ccc2cc(O)cc(-c3ncc4c(N5CCCC(C)(O)C5)nc(OC[C@]56CCC[C@H]5N(C)CCC6)nc4c3F)c12 (single isomer, unassigned) [Example 1-89]	–	–	IC50 (KRAS G12V): 20.1 nM; IC50 (KRAS WT): 8.5 nM; IC50 (KRAS G12A): 4.8 nM; IC50 (KRAS G12C): 9.3 nM
C#Cc1c(F)ccc2cc(O)cc(-c3ncc4c(N5CCOC6CC65)nc(OC[C@]56CCC[C@H]5N(C)CCC6)nc4c3F)c12 (single isomer, unassigned) [Example 1-99]	–	–	IC50 (KRAS G12V): 126 nM; IC50 (KRAS WT): 3 nM; IC50 (KRAS G12A): 12 nM; IC50 (KRAS G12C): 11 nM
C#Cc1c(F)ccc2cc(O)cc(-c3ncc4c(N5CCOCC(CC#N)C5)nc(OC[C@]56CCC[C@H]5N(C)CCC6)nc4c3F)c12 (single isomer, unassigned) [Example 1-130]	2 nM	2 nM	–
C#Cc1c(F)ccc2cc(O)cc(-c3ncc4c(N5CCOCCC5C)nc(OC[C@]56CCC[C@H]5N(C)CCC6)nc4c3F)c12 (single isomer, unassigned) [Example 1-142]	560 nM	–	–
C#Cc1c(F)ccc2cc(O)cc(-c3ccc4c(N5CCCC(C#N)C5)nc(OC[C@@]56CCCN5C[C@H](F)C6)nc4c3F)c12 (single isomer, unassigned) [Example 2-41]	680 nM	–	–
C#Cc1c(F)ccc2cc(O)cc(-c3ncc4c(N5C[C@@H](C)O[C@@H](C)C5)nc(OC[C@]56CCC[C@H]5N(C)CCC6)nc4c3F)c12 [Example 1-12, 4-(2-{[(4aS,7aR)-1-methyl-octahydro-1H-cyclopenta[b]pyridin-4a-yl]methoxy}-4-[(2R,6S)-2,6-dimethylmorpholin-4-yl]-8-fluoropyrido[4,3-d]pyrimidin-7-yl)-5-ethynyl-6-fluoronaphthalen-2-ol]	1000 nM	< 2 nM	–
C#Cc1c(F)ccc2cc(O)cc(-c3ncc4c(N5C[C@H]6C[C@@H]5CO6)nc(OC[C@@]56CCCN5C[C@H](F)C6)nc4c3F)c12 [Example 1-37, 4-(2-{[(2R,7aS)-2-fluoro-hexahydro-1H-pyrrolizin-7a-yl]methoxy}-8-fluoro-4-[(1R,4R)-2-oxa-5-azabicyclo[2.2.1]heptan-5-yl]pyrido[4,3-d]pyrimidin-7-yl)-5-ethynyl-6-fluoronaphthalen-2-ol]	–	–	IC50 (KRAS G12V): 54.5 nM; IC50 (KRAS G12A): 10.5 nM; IC50 (KRAS G12C): 16.6 nM
C#Cc1c(F)ccc2cc(O)cc(-c3ncc4c(N5CCOCCC5C)nc(OC[C@]56CCC[C@H]5N(C)CCC6)nc4c3F)c12 (stereo partly drawn) [Example 1-93, 4-(2-{[(4aS,7aR)-1-methyl-octahydro-1H-cyclopenta [b]pyridin-4a-yl]methoxy}-8-fluoro-4-(5-methyl-1,4-oxazepan-4-yl)pyrido[4,3-d]pyrimidin-7-yl)-5-ethynyl-6-fluoronaphthalen-2-ol]	190 nM	–	–
C#Cc1c(F)ccc2cc(O)cc(-c3ncc4c(N5CCCOCC5)nc(OC[C@@]56C[C@@H](F)CN5CC5(CC5)C6)nc4c3F)c12 [Example 1-106, 4-(2-{[(6′R,7′aR)-6′-fluoro-hexahydrospiro [cyclopropane-1,2′-pyrrolizine]-7′a-yl]methoxy}-8-fluoro-4-(1,4-oxazepan-4-yl)pyrido[4,3-d]pyrimidin-7-yl)-5-ethynyl-6-fluoronaphthalen-2-ol]	10 nM	10 nM	–
C#Cc1c(F)ccc2cc(O)cc(-c3ccc4c(N5CC6C(C5)C6(C)C)nc(OC[C@@]56CCCN5C[C@H](F)C6)nc4c3F)c12 (stereo partly drawn) [Example 2-11, 4-(2-{[(2R,7aS)-2-fluoro-hexahydro-1H-pyrrolizin-7a-yl]methoxy}-4-{6,6-dimethyl-3-azabicyclo[3.1.0]hexan-3-yl}-8-fluoroquinazolin-7-yl)-5-ethynyl-6-fluoronaphthalen-2-ol]	2620 nM	2610 nM	–
C#Cc1c(F)ccc2cc(O)cc(-c3ccc4c(N5CCC(S(=O)(=O)N(C)C)CC5)nc(OC[C@@]56CCCN5C[C@H](F)C6)nc4c3F)c12 [Example 2-19, 1-(2-{[(2R,7aS)-2-fluoro-hexahydro-1H-pyrrolizin-7a-yl]methoxy}-7-(8-ethynyl-7-fluoro-3-hydroxynaphthalen-1-yl)-8-fluoroquinazolin-4-yl)-N,N-dimethylpiperidine-4-sulfonamide]	> 100000 nM	2390 nM	–
C#Cc1c(F)ccc2cc(O)cc(-c3ccc4c(N5CC6CCC(C5)N6C(=O)C5CC(F)(F)C5)nc(OC[C@@]56CCCN5C[C@H](F)C6)nc4c3F)c12 [Example 7-4, 4-(2-{[(2R,7aS)-2-fluoro-hexahydro-1H-pyrrolizin-7a-yl]methoxy}-4-[8-(3,3-difluorocyclobutanecarbonyl)-3,8-diazabicyclo[3.2.1]octan-3-yl]-8-fluoroquinazolin-7-yl)-5-ethynyl-6-fluoronaphthalen-2-ol]	6600 nM	< 2 nM	–
C#Cc1c(F)ccc2cc(O)cc(-c3nc(OC)c4c(N5CCC[C@](O)(CF)C5)nc(OC[C@]56CCC[C@H]5N(C)CCC6)nc4c3F)c12 [Example 9-26, (R)-1-(7-(8-ethynyl-7-fluoro-3-hydroxynaphthalen-1-yl)-8-fluoro-5-methoxy-2-(((4aS,7aR)-1-methyloctahydro-4aH-cyclopenta[b]pyridin-4a-yl)methoxy)pyrido[4,3-d]pyrimidin-4-yl)-3-(fluoromethyl)piperidin-3-ol]	–	6 nM	–
C#Cc1c(F)ccc2cc(O)cc(-c3nc(OC)c4c(N5CCOC6CC65)nc(OC[C@@]56CCCN5C[C@H](F)C6)nc4c3F)c12 (stereo partly drawn) [Example 9-40, 4-(4-(2-oxa-5-azabicyclo[4.1.0]heptan-5-yl)-8-fluoro-2-(((2R,7aS)-2-fluorotetrahydro-1H-pyrrolizin-7a(5H)-yl)methoxy)-5-methoxypyrido[4,3-d]pyrimidin-7-yl)-5-ethynyl-6-fluoronaphthalen-2-ol]	–	6 nM	–
CN1CCC[C@@]2(COc3nc(N4CCC[C@@](C)(O)C4)c4cnc(-c5cc(O)ccc5C5CCC5)c(F)c4n3)CCC[C@@H]12 [Example 10-3, (3R)-1-(2-{[(4aS,7aR)-1-methyl-octahydro-1H-cyclopenta[b]pyridin-4a-yl]methoxy}-7-(2-cyclobutyl-5-hydroxyphenyl)-8-fluoropyrido[4,3-d]pyrimidin-4-yl)-3-methylpiperidin-3-ol]	1060 nM	< 2 nM	–
CN1CCC[C@@]2(COc3nc(N4CCC[C@@](C)(O)C4)c4cnc(-c5cn(C(F)F)c(=O)c6ccccc56)c(F)c4n3)CCC[C@@H]12 [Example 10-6, 4-(2-{[(4aS,7aR)-1-methyl-octahydro-1H-cyclopenta[b]pyridin-4a-yl]methoxy}-8-fluro-4-[(3R)-3-hydroxy-3-methylpiperidin-1-yl]pyrido[4,3-d]pyrimidin-7-yl)-2-(difluoromethyl)-1,2-dihydroisoquinolin-1-one]	> 100000 nM	> 100000 nM	–
CN1CCC[C@@]2(COc3nc(N4CCC[C@@](C)(O)C4)c4cnc(-c5cnc(OC(F)F)c6ccccc56)c(F)c4n3)CCC[C@@H]12 [Example 10-7, (3R)-1-(2-{[(4aS,7aR)-1-methyl-octahydro-1H-cyclopenta[b]pyridin-4a-yl]methoxy}-7-[1-(difluoromethoxy)isoquinolin-4-yl]-8-fluoropyrido[4,3-d]pyrimidin-4-yl)-3-methylpiperidin-3-ol]	> 100000 nM	> 100000 nM	–
CN1CCC[C@@]2(COc3nc(N4CCC[C@@](C)(O)C4)c4cnc(-c5cn(C(F)F)c(=O)c6ccc(C(F)(F)F)cc56)c(F)c4n3)CCC[C@@H]12 [Example 10-8, 4-(2-{[(4aS,7aR)-1-methyl-octahydro-1H-cyclopenta[b]pyridin-4a-yl]methoxy}-8-fluoro-4-[(3R)-3-hydroxy-3-methylpiperidin-1-yl]pyrido[4,3-d]pyrimidin-7-yl)-2-(difluoromethyl)-6-(trifluoromethyl)-1,2-dihydroisoquinolin-1-one]	> 100000 nM	> 100000 nM	–
